# Laboratory results taken from ChEMBL document CHEMBL4613212, “Insights of synthetic analogues of anti-leprosy agents” (Bioorg Med Chem, 2019).
# What was measured:
# [1] = system: Mycolicibacterium smegmatis; assay: Antimycobacterial activity against DDS sensitive Mycobacterium smegmatis ATCC 607 […]; type: functional
# [2] = system: Mycolicibacterium smegmatis; assay: Antimycobacterial activity against DDS resistant Mycobacterium smegmatis ATCC 607 […]; type: functional
# Mycobacterium leprae [3] = assay: Anti-leprotic activity against Mycobacterium leprae infected in BALB/c mouse assessed as time delay in bacterial multiplication in footpad at 0.003 g/100g of diet administered via feed starting 60 or 75 day post infection up to 90 days by Shepard's kinetic method; type: functional
# [4] = system: Mycolicibacterium smegmatis; assay: Antimicrobial activity against Mycobacterium smegmatis incubated for 24 hrs by broth microdilution assay; type: functional
# Mycolicibacterium aurum = assay: Antimicrobial activity against Mycobacterium aurum incubated for 24 hrs by broth microdilution assay; type: functional
# Mycolicibacterium vaccae = assay: Antimicrobial activity against Mycobacterium vaccae incubated for 24 hrs by broth microdilution assay; type: functional
# [5] = system: Mycolicibacterium fortuitum; assay: Antimicrobial activity against Mycobacterium fortuitum incubated for 24 hrs by broth microdilution assay; type: functional
# Mycobacterium leprae [6] = assay: Antimicrobial activity against Mycobacterium leprae assessed as microbial growth at 1.5 ug/ml in presence of 0.1 ug/ml rifampin measured at 4 weeks (reference value: 147 +/- 19.1%); type: functional
# Mycobacterium leprae [7] = assay: Antimicrobial activity against Mycobacterium leprae assessed as microbial growth at 1.5 ug/ml in presence of 0.2 ug/ml rifampin measured at 4 weeks (reference value: 147 +/- 19.1%); type: functional
# Mycobacterium leprae [8] = assay: Antimicrobial activity against Mycobacterium leprae assessed as microbial growth at 1.5 ug/ml in presence of 0.05 ug/ml rifabutin measured at 4 weeks (reference value: 147 +/- 19.1%); type: functional
# Mycobacterium leprae [9] = assay: Antimicrobial activity against Mycobacterium leprae assessed as microbial growth at 1.5 ug/ml in presence of 0.1 ug/ml rifabutin measured at 4 weeks (reference value: 147 +/- 19.1%); type: functional
# Mycobacterium leprae [10] = assay: Antimicrobial activity against Mycobacterium leprae assessed as microbial growth at 1.5 ug/ml in presence of 0.0125 ug/ml KRM-1648 measured at 4 weeks (reference value: 147 +/- 19.1%); type: functional
# Mycobacterium leprae [11] = assay: Antimicrobial activity against Mycobacterium leprae assessed as microbial growth at 1.5 ug/ml in presence of 0.025 ug/ml KRM-1648 measured at 4 weeks (reference value: 147 +/- 19.1%); type: functional
# Mycobacterium leprae [12] = assay: Antimicrobial activity against Mycobacterium leprae assessed as fractional inhibitory concentration index at 1.5 ug/ml in presence of 0.2 ug/ml rifampin measured at 4 weeks; type: functional
# Mycobacterium leprae [13] = assay: Antimicrobial activity against Mycobacterium leprae assessed as fractional inhibitory concentration index at 1.5 ug/ml in presence of 0.1 ug/ml rifabutin measured at 4 weeks; type: functional
# Mycobacterium leprae [14] = assay: Antimicrobial activity against Mycobacterium leprae assessed as fractional inhibitory concentration index at 1.5 ug/ml in presence of 0.025 ug/ml KRM-1648 measured at 4 weeks; type: functional
# [15] = system: Mycobacterium tuberculosis; assay: Antitubercular activity against Mycobacterium tuberculosis H37Rv ATCC 27294 assessed as growth inhibition at 6.25 ug/ml by microplate alamar blue assay relative to control; type: functional
# [16] = Selectivity index, ratio of IC50 for African green monkey Vero cells to MIC for antitubercular activity against Mycobacterium tuberculosis H37Rv; type: toxicity; details: Vero cells, read-out: Selectivity Index
# [17] = system: Mycobacterium tuberculosis; assay: Antitubercular activity against Mycobacterium tuberculosis H37Rv ATCC 27294 infected in bone marrow macrophages assessed as reduction in growth after 7 days; type: functional; details: H37Rv ATCC 27294, 168 h
# [18] = system: Mycobacterium tuberculosis; assay: Antitubercular activity against Mycobacterium tuberculosis H37Rv ATCC 27294 assessed as inhibition of [3H]-thymidine incorporation relative to control; type: functional
# [19] = system: Mycobacterium tuberculosis; assay: Antimycobacterial activity against Mycobacterium tuberculosis H37Rv by BACTEC radiometric growth assay; type: functional
# Mycobacterium leprae [20] = assay: Anti-leprotic activity against Mycobacterium leprae infected in BALB/c weanling mouse assessed as bacteria killing at 150 mg/kg, ip administrated for 60 days and measured after 1 year by most probable number technique analysis relative to control; type: functional
# Mycobacterium leprae [21] = assay: Anti-leprotic activity against Mycobacterium leprae infected in BALB/c weanling mouse assessed as bacteria killing at 150 mg/kg, ip administrated cotreated with 0.0001% dietary dapsone for 60 days and measured after 1 year by most probable number technique analysis relative to control; type: functional
# Mycobacterium leprae [22] = assay: Anti-leprotic activity against Mycobacterium leprae infected in BALB/c weanling mouse assessed as bacteria killing at 150 mg/kg, ip administrated for 60 days and measured after 1 year by Spearman-Karber technique analysis relative to control; type: functional
# Mycobacterium leprae [23] = assay: Anti-leprotic activity against Mycobacterium leprae infected in BALB/c weanling mouse assessed as bacteria killing at 150 mg/kg, ip administrated cotreated with 0.0001% dietary dapsone for 60 days and measured after 1 year by Spearman-Karber technique analysis relative to control; type: functional
smiles,measurement,setting,value
Nc1ccc(S(=O)(=O)c2cccc(N)c2)cc1,MIC,[1],24.2 µg/mL
same,MIC,[2],1300 µg/mL
same,Time,Mycobacterium leprae [3],133 days
O=C(O)c1cn(C2CC2)c2cc(N3CCNCC3)c(F)cc2c1=O [CIPROFLOXACIN],MIC,[4],0.8 µg/mL
same,MIC,Mycolicibacterium aurum,< 0.05 µg/mL
same,MIC,Mycolicibacterium vaccae,0.4 µg/mL
same,MIC,[5],0.05 µg/mL
same,Activity,Mycobacterium leprae [6],28%
same,Activity,Mycobacterium leprae [7],0%
same,Activity,Mycobacterium leprae [8],21%
same,Activity,Mycobacterium leprae [9],0%
same,Activity,Mycobacterium leprae [10],19%
same,Activity,Mycobacterium leprae [11],0%
same,fractional inhibitory concentration index (FICI),Mycobacterium leprae [12],1
same,fractional inhibitory concentration index (FICI),Mycobacterium leprae [13],1
same,fractional inhibitory concentration index (FICI),Mycobacterium leprae [14],1
Clc1nc(-c2ccco2)c2ncn(Cc3ccccc3)c2n1,inhibition at 6.25 µg/mL,[15],> 90%
same,selectivity ratio,[16],10.6
same,EC99,[17],8 µg/mL
same,inhibition (INH),[18],27%
CN[C@@H]1[C@H](O[C@H]2[C@H](O[C@H]3[C@H](O)[C@@H](O)[C@H](N=C(N)N)[C@@H](O)[C@@H]3N=C(N)N)O[C@@H](C)[C@]2(O)C=O)O[C@@H](CO)[C@H](O)[C@H]1O [STREPTOMYCIN],MIC,[19],2 µg/mL
same,Activity,Mycobacterium leprae [20],97.2%
same,Activity,Mycobacterium leprae [21],95.7%
same,Activity,Mycobacterium leprae [22],97%
same,Activity,Mycobacterium leprae [23],95%
